Several values for one entry are separate records, joined by “and”; a condition that tells them apart may be missing. Identical values can stand only once.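 A five-concentration, 48-hour dose response in 96-well plates underlies each endpoint, interpolated linearly between surrounding concentrations. GI50: concentration for 50% inhibition of growth. At the TGI there is no net growth.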

What all share (assay): growth of human tumour cells (NCI), 48 h
In assay [1] the test system is NCI-H460 lung.
Assay [2] deals with U251 CNS.
The subject of assay [3] is T-47D breast.
For assay [4], the system named is 786-0 renal.
The subject of assay [5] is UO-31 renal.
For assay [6], the system named is SK-MEL-28 melanoma.
For assay [7], the system named is MOLT-4 leukemia.
In assay [8] the test system is ACHN renal.
Assay [9] has as its system COLO 205 colon.
In assay [10] the test system is KM12 colon.
For assay [11], the system named is HOP-62 NSCLC.
The test system of assay [12] is EKVX NSCLC.

Consider `Cc1ccc(N=N/C(=N/NC(=O)c2cc(Cl)ccc2C(=O)c2ccccc2)c2ccc(N(CCC#N)CCC#N)cc2C)cc1`, for which the TGI in assay [1] was 13.6 µM; in assay [2], > 100 µM; in assay [3] it was 27.9 µM; in assay [4] it was 53.7 µM; in assay [5], > 100 µM; in assay [6], > 100 µM. Further, the TGI in assay [7] is 26.2 µM; in assay [8], > 100 µM; in assay [9], 27.7 µM; in assay [10], > 100 µM; in assay [11] it was > 100 µM; in assay [12], 84.7 µM.

In the case of `Cn1c(-c2cccs2)cc(-c2cccs2)c1-c1ccco1`, the TGI in [1] was > 100 µM; in [2], > 100 µM; in assay [3], 12 µM; in assay [4] it was > 100 µM; in assay [5], > 100 µM; in [6], > 100 µM. Also, the TGI in [7] is > 100 µM; in assay [8], > 100 µM; in assay [9] it was > 77.8 µM; in assay [10], 22.9 µM; in assay [11] it was > 100 µM; in assay [12] it was > 100 µM.

Take `CC(=O)NNc1nc(C)c(C(/C=C/c2ccc([N+](=O)[O-])cc2)=N/NC(N)=S)s1`: the TGI in assay [1], in [2], in [3], in assay [4], in [5] and in assay [6] was > 100 µM each time. For the same compound, the TGI in assay [7], in assay [8], in [9], in assay [10], in assay [11] and in [12] was > 100 µM each time.

With `Cc1cc(-c2nc3ccccc3s2)ccc1N`, the TGI is > 71.7 µM in [1]; > 88.5 µM in assay [2]; > 85.9 µM in assay [3]; > 79.6 µM in [4]; 88.3 µM in assay [5]; > 100 µM in assay [6]. Further, the TGI in assay [7] was 82.2 µM; in assay [8] it was > 95.1 µM; in assay [9], > 76.9 µM; in [10] it was > 81.2 µM; in assay [11], > 100 µM; in assay [12], > 95.3 µM.

Consider `COC1C(O)C(C)OC(OC2C(Oc3cccc4c(O)c5c(=O)oc6ccc(C)c7c(=O)oc(c34)c5c67)OC(C)C(O)C2O)C1O` (centres undefined), for which the TGI in [1] was 9.07 µM and 13.1 µM; in assay [2], 11.9 µM; in assay [3], 7.66 µM; in assay [4], 4.57 µM; in assay [5], 36.5 µM and 18.9 µM; in assay [6], 6.85 µM and 4.93 µM. Also, the TGI in assay [7] is 14.9 µM and 2.23 µM; in assay [8], 46.1 µM; in assay [9] it was 16 µM and 6.3 µM; in assay [10], 16.6 µM and 8.05 µM; in assay [11] it was 6.38 µM and 5.29 µM; in assay [12], 15.2 µM and 4.85 µM. The GI50 in assay [2] is 0.543 µM; in assay [6], 1.87 µM; in assay [7], 0.647 µM; in assay [9], 1.74 µM; in [10], 2.17 µM; in assay [11], 1.01 µM. Moreover, the GI50 in [12] was 3.81 µM.

Consider `CCOP(=O)(C/C=C/Cn1nc(Br)c(=O)[nH]c1=O)OCC`, for which the TGI in assay [1], in [2], in assay [3], in assay [4], in assay [5] and in assay [6] was > 100 µM each time. For the same compound, the TGI in [7], in [8], in assay [9], in [10], in assay [11] and in [12] was > 100 µM each time.

Consider `CC(C)(C)c1cc2c(O)c(c1)Cc1cc(C(C#N)(Cc3ccc4ccccc4c3)Cc3ccc4ccccc4c3)cc(c1O)Cc1cc(C(C)(C)C)cc(c1O)Cc1cc(C(C#N)(Cc3ccc4ccccc4c3)Cc3ccc4ccccc4c3)cc(c1O)C2`, for which the TGI in assay [1], in [2], in assay [3], in assay [4], in assay [5] and in assay [6] was > 100 µM throughout. Also, the TGI in [7], in assay [8], in [9], in [10], in assay [11] and in assay [12] was > 100 µM throughout.

On to `CC(C)OP(=O)(OC(C)C)/C(C#N)=C/c1ccco1`, for which the TGI is > 100 µM in assay [1]; > 100 µM in assay [2]; > 100 µM in assay [3]; > 100 µM in assay [4]; 9.38 µM in assay [5]; > 100 µM in assay [6]. Besides, the TGI in assay [7], in assay [8], in assay [9], in assay [10], in assay [11] and in [12] was > 100 µM in each case.

For the compound `COc1cc(C(=O)O[C@@H]2[C@@H](OC(=O)c3cc(OC)c(OC)c(OC)c3)[C@@H](OC)O[C@@H]3CO[C@@H](c4ccccc4)O[C@@H]23)cc(OC)c1OC`, the TGI in [1], in assay [2], in assay [3], in assay [4], in assay [5] and in assay [6] was > 100 µM in each case. The TGI in assay [7], in [8], in [9], in assay [10], in [11] and in assay [12] was > 100 µM each time.

As for `CCOC(=O)c1sc(N/N=C2\NC(=O)/C(=C/c3ccc([N+](=O)[O-])cc3)S2)nc1C`, the TGI is 48.2 µM in [1]; > 100 µM in [2]; 45.4 µM in [3]; 33.7 µM in [4]; 47 µM in assay [5]; > 100 µM in assay [6]. For the same compound, the TGI in assay [7] worked out at 31.1 µM; in assay [8] it was 58.3 µM; in assay [9], 48.5 µM; in assay [10], 57.1 µM; in assay [11], 38 µM; in assay [12], 43.4 µM.

Turning to `CN1CCCCC(C#N)(c2ccccc2)CC1` (centres undefined), the TGI in assay [1], in [2], in assay [3], in assay [4], in assay [5] and in assay [6] was > 100 µM each time. Further, the TGI in [7], in assay [8], in assay [9], in [10], in assay [11] and in [12] was > 100 µM throughout.

Consider `CC=CCOc1cc(NC(=S)OC(C)C)ccc1Cl` (mixture of isomers), for which the TGI in assay [1] stood at 31.8 µM; in assay [2], 32.8 µM; in assay [3], 35.7 µM; in assay [4], 31.6 µM; in [5], 24.7 µM; in assay [6] it was 33.7 µM. For the same compound, the TGI was determined as 38.8 µM in assay [7]; 31.6 µM in assay [8]; 33.3 µM in assay [9]; 33.4 µM in assay [10]; 45.4 µM in [11]; 36.6 µM in assay [12].

For `Oc1ccccc1C=Nc1ccc(-c2nc3ccccc3[nH]2)cc1`, the TGI in assay [1] was > 100 µM; in [2], > 100 µM; in [3], 66.5 µM; in assay [4], > 100 µM; in [5], > 100 µM; in assay [6], > 100 µM. Further, the TGI in [7], in assay [8], in assay [9], in [10], in assay [11] and in assay [12] was > 100 µM each time.

Regarding `C=C(C)CC1(O)C(=O)C(OCC)=C1OCC` (centres undefined), the TGI in assay [1], in assay [2], in assay [3], in [4], in [5] and in assay [6] was > 100 µM in each case. Also, the TGI in assay [7], in assay [8], in [9], in [10], in assay [11] and in assay [12] was > 100 µM each time.

Consider `CC(C)(C)OC(=O)N(O)CCCn1cnc2c(N)ncnc21`, for which the TGI in assay [1], in assay [2], in assay [3], in assay [4], in assay [5] and in assay [6] was > 100 µM in each case. Moreover, the TGI in assay [7], in assay [8], in [9], in assay [10], in assay [11] and in assay [12] was > 100 µM each time.

For the compound `N#CC(=C1CCCCC1)c1nc2ccccc2o1`, the TGI in [1], in [2], in [3], in assay [4], in assay [5] and in assay [6] was > 100 µM in each case. For the same compound, the TGI in assay [7] is > 100 µM; in [8], > 100 µM; in assay [9], 33.7 µM; in assay [10], > 100 µM; in assay [11] it was > 100 µM; in assay [12], 89.4 µM.

Source of the values: PubChem BioAssay (NCI).
